According to US10758536B2, “Method for treating shingles with N-methanocarbathymidine (N-MCT)” (priority 2015, dated 2020):

Key:
[1] = tested on: VZV; assay: Skin organ culture topical Assay 2: delayed treatment; format: cell-based, varicella-zoster virus
Protocol: (§1) Place 36 mL deionized sterile water into small beaker with stir bar. Slowly waft 900 mg of carbopol (980 NF, Lot # CCONLCC013, Lubrizol Corp) into water, avoiding clumps. Add equal volume N-MCT in 20% hydroxypropyl-β-cyclodextrin (Sigma) at 2× to reach the desired concentration. Add 2 drops NaOH (18% solution) to attain a pH near 5.0. Store at 4° C. The 0.5% cidofovir gel was made in a similar manner except that cidofovir was dissolved in water. The DMSO vehicle was prepared by adding a 2% DMSO solution in water to the carbopol suspension at a 1:1 ratio. Hydroxypropyl-β-cyclodextrin (HPBCD) was prepared by mixing 5.0 g with 20 mL sterile water. Stock solution of N-MCT was prepared by dissolving 90 mg N-MCT in 9 mL 20% HPBCD and sonicating for 1 min.
(§2) Human fetal skin was purchased from ABR and delivered by overnight courier on wet ice. The tissue was cleaned, disinfected in betadine and 70% ethanol, then cut into pieces approximately 1-cm^2. Each piece was inoculated with VZV-BAC-Luc strain that expresses firefly luciferase. Approximately 3 hours after inoculation, the pieces of skin were placed in NetWells above tissue culture medium and incubated overnight. The next day (Day 1) each piece of skin was soaked in D-luciferin for 45 min, and then scanned in the IVIS-50 instrument to measure Total Flux, which is a correlate of VZV pfu. The drug treatment began on Day 1 or later by spreading an aqueous gel (carbopol) containing N-MCT at concentrations of 0.05, 0.5, or 5% (see Assay 1 in Table 4 below). One group of skin was treated with cidofovir ([…] in carbopol gel) for a positive control. Each group contained 4-6 pieces of skin. The drug was applied daily until Day 5 (or other intervals), and then the skin pieces were scanned by IVIS to determine virus yield. […] The results were analyzed for statistical significance by ANOVA and Dunnett's post hoc test of multiple comparisons (GraphPad Prism).
This assay differs from Assay 1 in that the Vehicle was prepared with 10% HPBCD, which is the solvent for the N-MCT. Refer to Assay #2 in Table 4 above. Three groups were treated on Days 1-4 and scanned on Day 5, which is the typical assay protocol. Two groups were treated after a delay of several days, which more closely reflects a clinical scenario of zoster. All treated groups received the same preparation of 0.5% N-MCT in carbopol with 10% HPBCD. VZV yield was reduced in the Vehicle group during the treatment phase, and then rebounded. This was likely due to the effects of HPBCD, which has known antiviral properties. […] In contrast, VZV yield increased until Day 5 in the group that received no treatment until after this scan. The difference between this group and the Vehicle group was notable, since they were expected to be similar.

[2] = tested on: VZV; assay: Skin organ culture topical Assay 1: dose dependence (carbopol gel); format: cell-based, varicella-zoster virus
Protocol: as §1
A skin organ culture model was used to evaluate N-MCT as a topical treatment for VZV. Human skin explants were inoculated with VZV by scarification and treated daily from 1-4 days post infection with N-MCT (0.05, 0.5, or 5%) or cidofovir (0.5%, positive control) in a carbopol gel.
as §2

[3] = tested on: VZV; assay: SCID-Hu mouse model of VZV replication, oral dose range; format: in vivo, varicella-zoster virus; conditions: all doses, N-MCT 5-100 mg/kg/day BID; p<0.0001, ANOVA and Dunnett
Protocol: SCID-hu mice with human skin xenografts were infected intradermally with VZV and treated orally twice daily with vehicle, PFA (positive control), or N-MCT at 5, 10, 20, 25, 50, or 100 mg/kg/day. Virus spread was measured daily by in vivo bioluminescence imaging (IVIS). […] The results were analyzed for statistical significance by ANOVA and Dunnett's post hoc test of multiple comparisons (GraphPad Prism).

## CC(O)COC[C@H]1O[C@@H]2O[C@H]3[C@H](O)[C@@H](O)[C@@H](O[C@H]4[C@H](O)[C@@H](O)[C@@H](O[C@H]5[C@H](O)[C@@H](O)[C@@H](O[C@H]6[C@H](O)[C@@H](O)[C@@H](O[C@H]7[C@H](O)[C@@H](O)[C@@H](O[C@H]8[C@H](O)[C@@H](O)[C@@H](O[C@H]1[C@H](O)[C@H]2O)O[C@@H]8COCC(C)O)O[C@@H]7COCC(C)O)O[C@@H]6COCC(C)O)O[C@@H]5COCC(C)O)O[C@@H]4COCC(C)O)O[C@@H]3COCC(C)O (stereo partly drawn) [hydroxypropyl-β-cyclodextrin]
[1]; 10% in carbopol, no drug
  antiviral effect on VZV in skin organ culture: moderate antiviral effect

## Nc1ccn(C[C@@H](CO)OCP(=O)(O)O)c(=O)n1 [cidofovir, reference compound]
[1]; 0.5% in carbopol QD 1-4 dpi, during and after treatment
  VZV yield, treatment on Days 1-4: dramatically reduced
[2]; N-MCT 0.05, 0.5, 5% or cidofovir in carbopol gel, daily, p<0.0004
  VZV yield compared to vehicle: significantly reduced
[2]; N-MCT 0.05-5%, cidofovir 0.5% in carbopol gel
  VZV replication in skin explants, topical gel: prevented VZV replication
[2]; all concentrations, topical carbopol gel, p=0.0004
  reduction of virus yield compared to the vehicle group: approximately 100 fold

## O=C(O)P(=O)(O)O [PFA, phosphonoformic acid, reference compound]
[3]
  VZV yield and growth rates compared to vehicle: significantly reduced
